For one experiment, the target named is T1, Human PKMYT1 (Homo sapiens, UniProt Q99640).
T1 construct: Human PKMYT1 75-362 was cloned as a TEV cleavable 6xHis fusion; 6xHis (TEV cleavable) (cleaved yes); made in house; host or cells: bacterial cells
T1 sequence (Q99640 75-362): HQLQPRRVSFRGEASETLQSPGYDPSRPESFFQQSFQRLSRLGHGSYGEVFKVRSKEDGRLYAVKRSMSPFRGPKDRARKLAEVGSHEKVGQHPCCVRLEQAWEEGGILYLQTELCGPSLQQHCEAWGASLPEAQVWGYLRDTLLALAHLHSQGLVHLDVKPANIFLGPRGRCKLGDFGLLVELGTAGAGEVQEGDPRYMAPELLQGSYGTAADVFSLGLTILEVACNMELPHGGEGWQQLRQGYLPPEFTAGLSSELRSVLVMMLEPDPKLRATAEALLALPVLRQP
Briefly: PKMYT1 biochemical ADP-Glo enzymatic assay. Particulars: ADP-Glo. In a few lines:
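Intrinsic ATPase activity of E. coli-expressed, tag-cleaved human PKMYT1 kinase domain (75-362), 15 nM, with 500 µM ATP in HEPES pH 7.5/MgCl2/EGTA/Brij-35, 1% DMSO, 60 min at 26 °C. ADP formed was read by ADP-Glo Max luminescence; IC50 from 10-point, 3-fold dilution curves.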
(In general: ADP-Glo first removes unused ATP, then detects ADP through luciferase.)

For another experiment, the target named is T2, WEE1 (Homo sapiens, UniProt P30291).
T2 construct: purchased Thermo Fisher PR7373A
T2 sequence (P30291 whole entry): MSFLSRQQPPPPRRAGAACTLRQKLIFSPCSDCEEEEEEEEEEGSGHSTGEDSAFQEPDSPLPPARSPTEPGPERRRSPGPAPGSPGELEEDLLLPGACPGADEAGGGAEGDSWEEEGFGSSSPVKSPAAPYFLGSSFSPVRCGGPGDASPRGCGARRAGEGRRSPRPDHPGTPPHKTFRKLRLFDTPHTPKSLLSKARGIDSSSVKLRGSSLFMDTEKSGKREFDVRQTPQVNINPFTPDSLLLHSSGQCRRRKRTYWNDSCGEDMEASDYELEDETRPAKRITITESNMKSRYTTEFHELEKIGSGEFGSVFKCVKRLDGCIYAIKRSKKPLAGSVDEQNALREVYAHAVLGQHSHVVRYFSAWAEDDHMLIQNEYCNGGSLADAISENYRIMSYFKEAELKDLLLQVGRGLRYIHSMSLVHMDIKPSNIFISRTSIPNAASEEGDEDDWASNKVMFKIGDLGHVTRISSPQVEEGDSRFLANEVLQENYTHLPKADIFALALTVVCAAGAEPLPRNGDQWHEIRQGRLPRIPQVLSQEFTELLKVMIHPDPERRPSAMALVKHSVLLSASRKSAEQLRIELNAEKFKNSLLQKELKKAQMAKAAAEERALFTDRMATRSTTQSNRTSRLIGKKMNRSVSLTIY
Briefly: Selectivity versus WEE1 assay (ADP-Glo enzymatic assay). Particulars: for IC50: ADP-Glo; for PKMYT1 vs. WEE1 selectivity: fold difference in selectivity for PKMYT1 over WEE1. It counts as biochemical. In a few lines: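 Kinase at 15 nM final in 50 mM HEPES pH 7.5, 10 mM MgCl2, 1 mM EGTA, 0.01% Brij-35, 1% DMSO was started with 30 µM ATP and run 60 min at 26° C. ADP formed was read by ADP-Glo luminescence; IC50 came from dose-response curves.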

Setting [1] is: PKMYT1 kinase domain 15 nM, banded values.
Setting [2] is: 15 nM PKMYT1 kinase domain, 500 µM ATP, 60 minutes at 26° C., banded.
[3] abbreviates: 15 nM WEE1, 60 minutes at 26° C., banded.
Setting [4] is: banded, ">N" = at least in this band but could be higher.

Structures can show the parent of a compound that is named as a salt.

The term IC50 denotes the concentration at which inhibition is half-maximal. Low readings indicate higher potency, high ones lower potency.

As for `Cc1ccc(O)c(C)c1NC(=O)c1cnc(Nc2ccn(C)n2)o1` [BAA-462, N-(3-Hydroxy-2,6-dimethylphenyl)-2-((1-methyl-1H-pyrazol-3-yl)amino) oxazole-5-carboxamide], the 50% inhibitory concentration (IC50) against Human PKMYT1 (setting [1]) is 50 to 1000 nM; against WEE1 (WEE1 15 nM, banded values) it was over 11000 nM. Besides, the “PKMYT1 vs. WEE1 selectivity” value on WEE1 (banded) is recorded as “X (100-<1000 fold)”.

Regarding `Cc1ccc(O)c(C)c1NC(=O)c1cnc(Nc2ccn(C3CCCC3)n2)s1` [BAA-014, 2-[(1-cyclopentylpyrazol-3-yl)amino]-N-(3-hydroxy-2,6-dimethyl-phenyl)thiazole-5-carboxamide], the IC50 against Human PKMYT1 (setting [2]) is under 50 nM; on WEE1 (setting [3]), 1000 to 11000 nM. Moreover, on WEE1 (setting [4]), the “PKMYT1 vs. WEE1 selectivity” value is on record as “W (10-<100 fold)”.

As for `Cc1ccc(O)c(C)c1NC(=O)c1cnc(Nc2ccn([C@@H]3CCN(C(=O)Cc4ccncc4)C3)n2)s1` [BAA-104, N-(3-hydroxy-2,6-dimethyl-phenyl)-2-[1-[(3R)-1-[2-(4-pyridyl)acetyl]pyrrolidin-3-yl]pyrazol-3-ylamino]thiazole-5-carboxamide], the IC50 at Human PKMYT1 (setting [2]) is 50 to 1000 nM; against WEE1 (setting [3]) it was over 11000 nM. Further, the “PKMYT1 vs. WEE1 selectivity” value on WEE1 (setting [4]) is “>X (100-<1000 fold)”.

Turning to `Cc1ccc(O)c(C)c1NC(=O)c1cnc(Nc2ccn(CC(=O)N3CCN(C(=O)CC(C)C)CC3)n2)s1` [BAA-198, N-(3-hydroxy-2,6-dimethyl-phenyl)-2-[[1-[2-[4-(3-methylbutanoyl)piperazin-1-yl]-2-oxo-ethyl]pyrazol-3-yl]amino]thiazole-5-carboxamide], the IC50 against Human PKMYT1 (setting [2]) is under 50 nM; against WEE1 (setting [3]), over 11000 nM. For the same molecule, on WEE1 (setting [4]), the “PKMYT1 vs. WEE1 selectivity” value is “Y (1000-5000 fold)”.

On to `Cc1ccc(O)c(C)c1NC(=O)c1cnc(Nc2nn(C)cc2-c2ccccc2)s1` [BAA-373, N-(3-hydroxy-2,6-dimethylphenyl)-2-((1-methyl-4-phenyl-1H-pyrazol-3-yl)amino)thiazole-5-carboxamide], for which the IC50 against Human PKMYT1 (setting [2]) is 50 to 1000 nM; against WEE1 (setting [3]), over 11000 nM. Moreover, the “PKMYT1 vs. WEE1 selectivity” value on WEE1 (setting [4]) is listed as “X (100-<1000 fold)”.

`Cc1ccc(O)c(C)c1NC(=O)c1cnc(Nc2ccn(CC(=O)N3CCNC(=O)C3)n2)s1` [BAA-150]: the half-inhibitory concentration (IC50) against Human PKMYT1 (setting [2]) is under 50 nM; against WEE1 (setting [3]) it was over 11000 nM. Besides, the “PKMYT1 vs. WEE1 selectivity” value on WEE1 (setting [4]) is “X (100-<1000 fold)”.

Consider `Cc1ccc(O)c(C)c1NC(=O)c1cnc(Nc2nc3ccccc3s2)s1` [BAA-442, 2-(benzo[d]thiazol-2-ylamino)-N-(3-hydroxy-2,6-dimethylphenyl)thiazole-5-carboxamide], for which the IC50 is 50 to 1000 nM at Human PKMYT1 (setting [1]) and over 11000 nM against WEE1 (WEE1 15 nM, banded values). For the same molecule, at WEE1 (banded), the “PKMYT1 vs. WEE1 selectivity” value is “X (100-<1000 fold)”.

Take `Cc1ccc(O)c(C)c1NC(=O)c1cnc(Nc2ccn([C@@H]3CCN(C(=O)c4ccccc4)C3)n2)s1` [BAA-087]: the 50% inhibitory concentration (IC50) against Human PKMYT1 (setting [2]) was 50 to 1000 nM; at WEE1 (setting [3]), over 11000 nM.

As for `COCCNC(=O)Cn1ccc(Nc2ncc(C(=O)Nc3c(C)ccc(O)c3C)s2)n1` [BAA-166, N-(3-hydroxy-2,6-dimethyl-phenyl)-2-[[1-[2-(2-methoxyethylamino)-2-oxo-ethyl]pyrazol-3-yl]amino]thiazole-5-carboxamide], the IC50 is under 50 nM against Human PKMYT1 (setting [2]) and over 11000 nM on WEE1 (setting [3]). Further, the “PKMYT1 vs. WEE1 selectivity” value at WEE1 (setting [4]) is “Y (1000-5000 fold)”.

As to `Cc1ccc(O)c(C)c1NC(=O)c1cnc(Nc2cc3cc(F)ccc3cn2)s1` [BAA-290, 2-((6-fluoroisoquinolin-3-yl)amino)-N-(3-hydroxy-2,6-dimethylphenyl)thiazole-5-carboxamide], the figures for the IC50 on Human PKMYT1 (setting [2]) and at WEE1 (setting [3]) were 50 to 1000 nM and over 11000 nM, respectively. The “PKMYT1 vs. WEE1 selectivity” value on WEE1 (setting [4]) is listed as “X (100-<1000 fold)”.

In the case of `CCNC(=O)Cn1nc(Nc2ncc(C(=O)Nc3c(C)ccc(O)c3C)s2)cc1C` [BAA-202, 2-[[1-[2-(ethylamino)-2-oxo-ethyl]-5-methyl-pyrazol-3-yl]amino]-N-(3-hydroxy-2,6-dimethyl-phenyl)thiazole-5-carboxamide], the IC50 at Human PKMYT1 (setting [2]) is under 50 nM; at WEE1 (setting [3]), over 11000 nM. Moreover, the “PKMYT1 vs. WEE1 selectivity” value at WEE1 (setting [4]) was “X (100-<1000 fold)”.

For `Cc1ccc(O)c(C)c1NC(=O)c1cnc(Nc2ccn(CC(=O)N3CC(F)(F)C3)n2)s1` [BAA-196], the IC50 at Human PKMYT1 (setting [2]) was under 50 nM; on WEE1 (setting [3]), over 11000 nM. The “PKMYT1 vs. WEE1 selectivity” value on WEE1 (setting [4]) was “Y (1000-5000 fold)”.

Turning to `Cc1ccc(O)c(C)c1NC(=O)c1cnc(Nc2ccccc2C2CC2)s1` [BAA-526, 2-((2-cyclopropylphenyl)amino)-N-(3-hydroxy-2,6-dimethylphenyl)thiazole-5-carboxamide], the IC50 against Human PKMYT1 (setting [1]) was 50 to 1000 nM; against WEE1 (WEE1 15 nM, banded values), over 11000 nM. In addition, on WEE1 (banded), the “PKMYT1 vs. WEE1 selectivity” value is on record as “X (100-<1000 fold)”.

Consider `Cc1ccc(O)c(C)c1NC(=O)c1cnc(Nc2nn(C)c3cccnc23)s1` [BAA-210, N-(3-Hydroxy-2,6-dimethyl-phenyl)-2-[(1-methylpyrazolo[4,3-b]pyridin-3-yl)amino]thiazole-5-carboxamide], for which the IC50 against Human PKMYT1 (setting [2]) was under 50 nM; against WEE1 (setting [3]), over 11000 nM. Also, at WEE1 (setting [4]), the “PKMYT1 vs. WEE1 selectivity” value is listed as “Z (>5000 fold)”.

For the molecule `Cc1ccc(O)c(C)c1NC(=O)c1cnc(NCC2CCN(C(=O)CC(C)(C)C)CC2)s1` [BAA-212, 2-[[1-(3,3-Dimethylbutanoyl)-4-piperidyl]methylamino]-N-(3-hydroxy-2,6-dimethyl-phenyl)thiazole-5-carboxamide], the IC50 against Human PKMYT1 (setting [2]) is 50 to 1000 nM; against WEE1 (setting [3]) it was over 11000 nM. Further, the “PKMYT1 vs. WEE1 selectivity” value on WEE1 (setting [4]) is given as “>X (100-<1000 fold)”.

Consider `Cc1ccc(O)c(C)c1NC(=O)c1cnc(Nc2ncc3cc(F)ccc3n2)s1` [BAA-296, 2-((6-fluoroquinazolin-2-yl)amino)-N-(3-hydroxy-2,6-dimethylphenyl)thiazole-5-carboxamide], for which the IC50 was under 50 nM against Human PKMYT1 (setting [2]) and over 11000 nM at WEE1 (setting [3]). In addition, on WEE1 (setting [4]), the “PKMYT1 vs. WEE1 selectivity” value is “Y (1000-5000 fold)”.

As to `Cc1ccc(O)c(C)c1NC(=O)c1cnc(Nc2ccn(CC(=O)N3C[C@@H](C)N[C@@H](C)C3)n2)s1` [BAA-227, 2-((1-(2-((3R,5S)-3,5-dimethylpiperazin-1-yl)-2-oxoethyl)-1H-pyrazol-3-yl)amino)-N-(3-hydroxy-2,6-dimethylphenyl)thiazole-5-carboxamide], the figures for the half-maximal inhibitory concentration (IC50) against Human PKMYT1 (setting [2]) and against WEE1 (setting [3]) were under 50 nM and over 11000 nM, respectively. Moreover, the “PKMYT1 vs. WEE1 selectivity” value at WEE1 (setting [4]) is reported as “X (100-<1000 fold)”.

Regarding `Cn1ccc(Nc2ncc(C(=O)Nc3c(F)ccc(O)c3F)s2)n1` [BAA-249, N-(2,6-difluoro-3-hydroxyphenyl)-2-((1-methyl-1H-pyrazol-3-yl)amino)thiazole-5-carboxamide], the IC50 against Human PKMYT1 (setting [2]) was 50 to 1000 nM; against WEE1 (setting [3]) it was over 11000 nM. Further, the “PKMYT1 vs. WEE1 selectivity” value at WEE1 (setting [4]) is on record as “X (100-<1000 fold)”.

As to `Cc1ccc(O)c(C)c1NC(=O)c1cnc(Nc2ccn(C(F)F)n2)s1` [BAA-025, 2-[[1-(difluoromethyl)pyrazol-3-yl]amino]-N-(3-hydroxy-2,6-dimethyl-phenyl)thiazole-5-carboxamide], the IC50 was 50 to 1000 nM against Human PKMYT1 (setting [2]) and over 11000 nM on WEE1 (setting [3]). For the same molecule, the “PKMYT1 vs. WEE1 selectivity” value at WEE1 (setting [4]) is “X (100-<1000 fold)”.

Consider `Cc1ccc(O)c(C)c1NC(=O)c1cnc(Nc2cnn(C)c2)s1` [BAA-536, N-(3-hydroxy-2,6-dimethylphenyl)-2-((1-methyl-1H-pyrazol-4-yl)amino)thiazole-5-carboxamide hydrochloride], for which the IC50 lay within 50 to 1000 nM against Human PKMYT1 (setting [1]) and 1000 to 11000 nM on WEE1 (WEE1 15 nM, banded values). In addition, the “PKMYT1 vs. WEE1 selectivity” value on WEE1 (banded) is given as “X (100-<1000 fold)”.

(Values after patent US20260297042A1, “BIARYLAMIDE DERIVATIVES AND THEIR USE AS PKMYT1 INHIBITORS” (CANCER RESEARCH TECHNOLOGY LIMITED, priority 2023, published 2026).)
